pIC50: −log10 of the molar value.
Molecular target: hJAK3 kinase domain (aa781-end) (Homo sapiens (Human), UniProt P52333)
Experiment: JAK3 activity inhibition, kinase reaction (Test 1)
Conditions: read-out: JAK3 % Inhibition
Experimental: JAK3 activity inhibitory effects of test compounds were evaluated by the following kinase reactions.
In the kinase reactions, fused proteins (6His tag-fused hJAK3 kinase domain (aa781-end)) which were coexpressed in Sf21 cells and purified by Ni2+/NTA agarose were used.
A well in which ATP was not added was set out as a blank well.
Plates were let stand at room temperature for 10 minutes from starting reactions.
One hour after the addition of the buffer for detection, fluorescence counts of each well were measured by a fluorescence microplate reader.
Data were obtained by deducting the average Ratio of a blank well from Ratio of each well.

hJAK3 kinase domain (aa781-end), sequence (P52333 781-1124 limits assumed): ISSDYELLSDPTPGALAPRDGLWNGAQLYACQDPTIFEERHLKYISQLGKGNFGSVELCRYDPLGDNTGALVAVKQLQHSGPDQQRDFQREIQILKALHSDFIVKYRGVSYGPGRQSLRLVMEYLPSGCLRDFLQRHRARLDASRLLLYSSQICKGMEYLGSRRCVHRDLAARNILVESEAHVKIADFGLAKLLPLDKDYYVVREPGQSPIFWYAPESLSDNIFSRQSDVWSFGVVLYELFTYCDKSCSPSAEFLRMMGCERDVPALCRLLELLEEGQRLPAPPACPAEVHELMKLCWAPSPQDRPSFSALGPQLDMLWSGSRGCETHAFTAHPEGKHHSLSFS

Compound	inhibition at 1 µM
N#CC1CCN(C(=O)N2CCCC23CCN(c2ncnc4[nH]ccc24)C3)C1 (racemic) [Compound 51]	41%
c1nc(N2CCCC3(CCCCCN3)C2)c2cc[nH]c2n1 (racemic) [Compound 75]	1%
c1nc(N2CCC3(CCCCN3)C2)c2cc[nH]c2n1 (racemic) [Compound 79]	38%
CC(=O)N1CCCC12CCN(c1ncnc3[nH]ccc13)C2 (racemic) [Compound 87]	39%
N#CCC(=O)N1CCCC12CCCN(c1c(Cl)cnc3[nH]ncc13)C2 (racemic) [Compound 91]	42%
CC1N(c2ncnc3[nH]ccc23)CCC12CCCN2C(=O)CC#N (stereo not drawn) [Compound 13]	26%

Same assay, conditions: read-out: JAK3 IC50

pIC50	Compound
6.24	CC(O)C(=O)N1CCCC12CCCN(c1ncnc3[nH]ccc13)C2 (single isomer, unassigned) [Compound 30]
6.28	CC(O)C(=O)N1CCCC12CCCN(c1ncnc3[nH]ccc13)C2 (single isomer, unassigned) [Compound 35]
6.82	CC(O)C(=O)N1CCCC12CCCN(c1ncnc3[nH]ccc13)C2 (single isomer, unassigned) [Compound 36]
7.40	C[C@H](O)C(=O)N1CCCC12CCCN(c1ncnc3[nH]ccc13)C2 (stereo partly drawn) [Compound 43]
6.57	CO[C@@H](C)C(=O)N1CCCC12CCCN(c1ncnc3[nH]ccc13)C2 (stereo partly drawn) [Compound 45]
6.57	CO[C@H](C)C(=O)N1CCCC12CCCN(c1ncnc3[nH]ccc13)C2 (stereo partly drawn) [Compound 46]
6.96	CC(=O)O[C@@H](C)C(=O)N1CCCC12CCCN(c1ncnc3[nH]ccc13)C2 (stereo partly drawn) [Compound 47]

Second part, the compound before the results:

Compound	pIC50
CC1CC2(CCCN2C(=O)CC#N)CN1c1ncnc2[nH]ccc12 (single isomer, unassigned) [Compound 33]	6.32
CC1N(c2ncnc3[nH]ccc23)CCC12CCCN2C(=O)CC#N (single isomer, unassigned) [Compound 34]	7.44
CC1CC2(CCCN2C(=O)CC#N)CN1c1ncnc2[nH]ccc12 (single isomer, unassigned) [Compound 42]	7.00
CC1CC2(CCCN(c3ncnc4[nH]ccc34)C2)N1C(=O)CC#N (stereo not drawn) [Compound 14]	7.39
CC1CC2(CCCN(c3ncnc4[nH]ccc34)C2)N1C(=O)CC#N (stereo not drawn) [Compound 20]	7.00

Molecular target: hJAK2 kinase domain (aa808-end) (Homo sapiens (Human), UniProt O60674)
Experiment: JAK2 activity inhibition, kinase reaction (Test 2)
Assay type: biochemical
Conditions: not given

hJAK2 kinase domain (aa808-end), sequence (O60674 808-1132 limits assumed): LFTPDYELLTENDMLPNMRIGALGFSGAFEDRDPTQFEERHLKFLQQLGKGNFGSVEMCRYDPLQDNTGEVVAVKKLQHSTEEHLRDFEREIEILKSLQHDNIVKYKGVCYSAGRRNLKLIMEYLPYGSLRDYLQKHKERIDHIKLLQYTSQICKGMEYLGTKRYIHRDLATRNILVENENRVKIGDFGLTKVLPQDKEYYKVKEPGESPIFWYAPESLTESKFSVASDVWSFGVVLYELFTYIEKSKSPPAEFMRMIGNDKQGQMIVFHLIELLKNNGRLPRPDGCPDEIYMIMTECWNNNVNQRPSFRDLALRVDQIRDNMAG

Compound	pIC50
CC1CN(C(=O)CC#N)C12CCCN(c1ncnc3[nH]ccc13)C2 (single isomer, unassigned) [Compound 1, 3-[3-methyl-6-(7H-pyrrolo[2,3-d]pyrimidin-4-yl)-1,6-diazaspiro[3.5]non-1-yl]-3-oxopropionitrile]	9.00
CC1CN(C(=O)CC#N)C12CCCN(c1ncnc3[nH]ccc13)C2 (single isomer, unassigned) [Compound 2, 3-[3-methyl-6-(7H-pyrrolo[2,3-d]pyrimidin-4-yl)-1,6-diazaspiro[3.5]non-1-yl]-3-oxopropionitrile]	8.77
N#CCC(=O)N1CCC12CCCN(c1ncnc3[nH]ccc13)C2 (stereo not drawn) [Compound 3, 3-oxo-3-[6-(7H-pyrrolo[2,3-d]pyrimidin-4-yl)-1,6-diazaspiro[3.5]non-1-yl]-propionitrile]	8.66
N#CCC(=O)N1CC(F)(F)C12CCN(c1ncnc3[nH]ccc13)C2 (stereo not drawn) [Compound 4, 3-[3,3-difluoro-6-(7H-pyrrolo[2,3-d]pyrimidin-4-yl)-1,6-diazaspiro[3.4]oct-1-yl]-3-oxopropionitrile]	8.77
N#CCC(=O)N1CC(F)(F)C12CCCN(c1ncnc3[nH]ccc13)C2 (stereo not drawn) [Compound 5, 3-[3,3-difluoro-6-(7H-pyrrolo[2,3-d]pyrimidin-4-yl)-1,6-diaza-spiro[3.5]non-1-yl]-3-oxo-propionitrile]	8.72
N#CCC(=O)N1CCCC12CCCN(c1ncnc3[nH]ccc13)C2 (stereo not drawn) [Compound 7, 3-oxo-3-[7-(7H-pyrrolo[2.3-d]pyrimidin-4-yl)-1,7-diazaspiro[4.5]dec-1-yl)propionitrile]	8.33

— patent publication US20240150367A1, “NITROGEN-CONTAINING SPIRO CYCLIC COMPOUNDS AND PHARMACEUTICAL USE THEREOF” (Japan Tobacco Inc., priority 2009, published 2024)
